Test results: patent US9968649B2, “Vasopressin formulations for use in treatment of hypotension” (Par Pharmaceutical, Inc., priority 2015, dated 2018)
“And” between values parts separate entries of the source, which are not always exact repeats. Equal entries are not always repeated.

Experiment: Effect of temperature on vasopressin formulations: HPLC vasopressin assay and impurities on storage (Example 8)
Format: physicochemical
Settings: for AVP Assay / Total Impurities: upright
Method: To analyze degradation products of vasopressin that can be present in an illustrative formulation of vasopressin, gradient HPLC was performed to separate vasopressin from related peptides and formulation components. TABLE 2 below depicts the results of the experiment detailing the chemical formula, relative retention time (RRT), molar mass, and structure of vasopressin and detected impurities.
Vasopressin was detected in the eluent using UV absorbance. The concentration of vasopressin in the sample was determined by the external standard method, where the peak area of vasopressin in sample injections was compared to the peak area of vasopressin reference standards in a solution of known concentration. The concentrations of related peptide impurities in the sample were also determined using the external standard method, using the vasopressin reference standard peak area and a unit relative response factor. An impurities marker solution was used to determine the relative retention times of identified related peptides at the time of analysis.
To test the effect of temperature on the stability of vasopressin formulation, solutions containing 20 units/mL vasopressin and chlorobutanol, adjusted to pH 3.5 with acetic acid, were prepared. One mL of each vasopressin formulations was then filled into 3 cc vials. Each Vasopressin Formulation was stored either inverted or upright for at least three months, up to 24 months, at: (i) 5° C.; (ii) 25° C. and 60% relative humidity; or (iii) 40° C. and 75% humidity, and the amount of vasopressin (U/mL) and % total impurities were measured periodically. TABLES 7-12 below display the results of the experiments at 5° C. The results of the experiments at 25° C. are included in TABLES 13-18. All of the experiments were performed in triplicate. The results of the experiments at 40° C. are included in TABLES 19-24. For each temperature tested, three lots of the vasopressin formulation were stored for 24 months (5° C. and 25° C.) and 3 months (40° C.), and measurements were taken at regular intervals during the testing periods. “NMT” as used in the tables denotes “not more than.”
Experiments were also conducted on the same samples above over the course of the experiments to measure the amount of individual impurities in the samples, pH of the samples, chlorobutanol content, particulate matter, antimicrobial effectiveness, and bacterial endotoxin levels (TABLES 25-42). (NR=no reading; ND=not determined; UI=unidentified impurity).

[1] = 5° C., 12 months, listed as AVP
[2] = 5° C., 18 months, listed as AVP
[3] = 5° C., 24 months, listed as AVP
[4] = 25° C. and 60% Relative Humidity, 3 months, listed as AVP
[5] = 25° C. and 60% Relative Humidity, 6 months, listed as AVP
[6] = 25° C. and 60% Relative Humidity, 9 months, listed as AVP
[7] = 25° C. and 60% Relative Humidity, 12 months, listed as AVP
[8] = 25° C. and 60% Relative Humidity, 18 months, listed as AVP
[9] = 25° C. and 60% Relative Humidity, 24 months, listed as AVP
[10] = 25° C. and 60% Relative Humidity, Initial, listed as AVP

NC(=O)CC[C@@H]1NC(=O)[C@H](Cc2ccccc2)NC(=O)[C@H](Cc2ccc(O)cc2)NC(=O)[C@@H](N)CSSC[C@@H](C(=O)N2CCC[C@H]2C(=O)N[C@@H](CCCN=C(N)N)C(=O)NCC(N)=O)NC(=O)[C@H](CC(N)=O)NC1=O [Vasopressin, Cyclo (1-6) L-Cysteinyl-L-Tyrosyl-L-Phenylalanyl-L-Glutaminyl-L-Asparaginyl-L-Cysteinyl-L-Prolyl-L-Arginyl-L-Glycinamide]
Related Substances: UI-1.83-1.85 (inverted, 40° C., 2 months): 0.2% | Related Substances: UI-1.87-1.88 (inverted, 40° C., 2 months): 0.2% | Related Substances: UI-2.05-2.08 (inverted, 40° C., 2 months): 0.2% | Related Substances: Acetyl-AVP (inverted, 40° C., 3 months): 0.2% | Related Substances: Asp5-AVP (inverted, 40° C., 3 months): 0.8% | Related Substances: D-Asn-AVP (inverted, 40° C., 3 months): 0.3% | Related Substances: SEQ ID NO.: 2 (inverted, 40° C., 3 months): 3.8% | Related Substances: SEQ ID NO.: 4 (inverted, 40° C., 3 months): 4.3% | Related Substances: UI-1.02-1.03 (inverted, 40° C., 3 months): 0.3% | Related Substances: UI-1.18 (inverted, 40° C., 3 months): 0.2% | Related Substances: UI-1.56-1.57 (inverted, 40° C., 3 months): 0.4% | Related Substances: UI-1.83-1.85 (inverted, 40° C., 3 months): 0.2% | Related Substances: UI-1.87-1.88 (inverted, 40° C., 3 months): 0.2% | Related Substances: Acetyl-AVP (inverted, 40° C., Initial): 0.3% | Related Substances: D-Asn-AVP (inverted, 40° C., Initial): 0.3% | Related Substances: SEQ ID NO.: 2 (inverted, 40° C., Initial): 0.1% | Related Substances: SEQ ID NO.: 4 (inverted, 40° C., Initial): 0.1% | Related Substances: UI-1.02-1.03 (inverted, 40° C., Initial): 0.2% | AVP Assay (5° C., 1 month, listed as AVP): 19.5 U/mL and 19.7 U/mL | Total Impurities (5° C., 1 month, listed as AVP): 2.1% and 1.8% | AVP Assay (5° C., 2 months, listed as AVP): 19.4 U/mL and 19.6 U/mL | Total Impurities (5° C., 2 months, listed as AVP): 2.1% and 2.2% and 2.0% | AVP Assay (5° C., 3 months, listed as AVP): 19.4 U/mL and 19.7 U/mL | Total Impurities (5° C., 3 months, listed as AVP): 2.3% and 2.2% | AVP Assay (5° C., 6 months, listed as AVP): 19.5 U/mL and 19.8 U/mL | Total Impurities (5° C., 6 months, listed as AVP): 2.1% and 2.2% | AVP Assay (5° C., 9 months, listed as AVP): 19.5 U/mL and 19.7 U/mL | Total Impurities (5° C., 9 months, listed as AVP): 2.3% and 2.1% | AVP Assay [1]: 19.5 U/mL and 19.8 U/mL and 19.9 U/mL | Total Impurities [1]: 2.5% and 2.6% and 2.4% | AVP Assay [2]: 19.4 U/mL and 19.7 U/mL and 19.8 U/mL | Total Impurities [2]: 2.9% and 2.8% | AVP Assay [3]: 19.3 U/mL and 19.5 U/mL | Total Impurities [3]: 2.9% and 2.8% and 2.7% | AVP Assay (5° C., Initial, listed as AVP): 19.4 U/mL and 19.7 U/mL | Total Impurities (5° C., Initial, listed as AVP): 2.3% and 2.7% and 2.2% | AVP Assay [4]: 19.4 U/mL and 19.7 U/mL and 19.6 U/mL | Total Impurities [4]: 2.4% and 2.5% | AVP Assay [5]: 19.1 U/mL and 19.4 U/mL and 19.2 U/mL | Total Impurities [5]: 3.2% and 3.3% and 3.7% | AVP Assay [6]: 18.8 U/mL and 18.9 U/mL and 19 U/mL | Total Impurities [6]: 4.8% and 4.5% and 4.7% | AVP Assay [7]: 18.3 U/mL and 18.6 U/mL and 18.5 U/mL | Total Impurities [7]: 5.6% and 5.7% and 5.9% | AVP Assay (25° C. and 60% Relative Humidity, 18 months): 18.1 U/mL | AVP Assay [8]: 17.5 U/mL and 17.8 U/mL | Total Impurities [8]: 9.2% and 9.1% | Total Impurities (25° C. and 60% Relative Humidity, 24 months): 13.3% | AVP Assay [9]: 17.4 U/mL and 17.7 U/mL | Total Impurities [9]: 13.1% | AVP Assay [10]: 19.8 U/mL and 20.1 U/mL and 19.9 U/mL | Total Impurities [10]: 1.1% and 1.3% and 1.5%
